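Five compound concentrations were applied to cells in 96-well plates for 48 hours; endpoints were derived by simple linear interpolation of the resulting dose-response curve. GI50 marks 50% less growth.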 Calls of active or inactive are those of the source. No stated cut-off is given here; in the data, active = GI50 up to about 1.1 µM and inactive = higher.
Key:
Test in all cases: NCI-60 cell line screen, 48 h
786-0 = test system: 786-0
A498 = test system: A498
A549 = test system: A549
ACHN = test system: ACHN
BT-549 = test system: BT-549
CAKI-1 = test system: CAKI-1
CCRF-CEM = test system: CCRF-CEM
COLO 205 = test system: COLO 205
DU-145 = test system: DU-145
EKVX = test system: EKVX
HCC 2998 = test system: HCC 2998
HCT-116 = test system: HCT-116
HCT-15 = test system: HCT-15
HL-60 = test system: HL-60
HOP-62 = test system: HOP-62
HOP-92 = test system: HOP-92
HT-29 = test system: HT-29
Hs-578T = test system: Hs-578T
IGROV-1 = test system: IGROV-1
K562 = test system: K562
KM12 = test system: KM12
LOX IMVI = test system: LOX IMVI
M14 = test system: M14
MCF7 = test system: MCF7
MDA-MB-231 = test system: MDA-MB-231
MDA-MB-435 = test system: MDA-MB-435
MDA-N = test system: MDA-N
Malme-3M = test system: Malme-3M
NCI-H226 = test system: NCI-H226
NCI-H23 = test system: NCI-H23
NCI-H460 = test system: NCI-H460
NCI-H522 = test system: NCI-H522
NCI/ADR-RES = test system: NCI/ADR-RES
OVCAR-3 = test system: OVCAR-3
OVCAR-4 = test system: OVCAR-4
OVCAR-5 = test system: OVCAR-5
OVCAR-8 = test system: OVCAR-8
PC-3 = test system: PC-3
RPMI-8226 = test system: RPMI-8226
RXF 393 = test system: RXF 393
SF-268 = test system: SF-268
SF-295 = test system: SF-295
SK-MEL-28 = test system: SK-MEL-28
SK-MEL-2 = test system: SK-MEL-2
SK-MEL-5 = test system: SK-MEL-5
SK-OV-3 = test system: SK-OV-3
SN12C = test system: SN12C
SNB-19 = test system: SNB-19
SNB-75 = test system: SNB-75
SR = test system: SR
SW-620 = test system: SW-620
T47D = test system: T47D
TK-10 = test system: TK-10
U-251 = test system: U-251
UACC-257 = test system: UACC-257
UACC-62 = test system: UACC-62
UO-31 = test system: UO-31

## CC(CSC(=N)N)C(N)=O (configuration not stated)
786-0
  GI50: > 100 µM (inactive)
A498
  GI50: > 100 µM (inactive)
A549
  GI50: > 100 µM (inactive)
ACHN
  GI50: > 100 µM (inactive)
BT-549
  GI50: > 100 µM (inactive)
CAKI-1
  GI50: > 100 µM (inactive)
CCRF-CEM
  GI50: > 100 µM (inactive)
COLO 205
  GI50: > 100 µM (inactive)
DU-145
  GI50: > 100 µM (inactive)
EKVX
  GI50: > 100 µM (inactive)
HCC 2998
  GI50: > 100 µM (inactive)
HCT-116
  GI50: > 100 µM (inactive)
HCT-15
  GI50: > 100 µM
HL-60
  GI50: > 100 µM (inactive)
HOP-62
  GI50: > 100 µM (inactive)
HOP-92
  GI50: > 100 µM (inactive)
HT-29
  GI50: > 100 µM (inactive)
Hs-578T
  GI50: > 100 µM (inactive)
IGROV-1
  GI50: > 100 µM (inactive)
K562
  GI50: > 100 µM (inactive)
KM12
  GI50: > 100 µM (inactive)
LOX IMVI
  GI50: > 100 µM (inactive)
M14
  GI50: > 100 µM (inactive)
MCF7
  GI50: > 100 µM (inactive)
MDA-MB-231
  GI50: > 100 µM (inactive)
MDA-MB-435
  GI50: > 100 µM (inactive)
MDA-N
  GI50: > 100 µM (inactive)
Malme-3M
  GI50: > 100 µM (inactive)
NCI-H226
  GI50: > 100 µM (inactive)
NCI-H23
  GI50: > 100 µM (inactive)
NCI-H460
  GI50: > 100 µM (inactive)
NCI-H522
  GI50: > 100 µM (inactive)
NCI/ADR-RES
  GI50: > 100 µM (inactive)
OVCAR-3
  GI50: > 100 µM (inactive)
OVCAR-4
  GI50: > 100 µM (inactive)
OVCAR-5
  GI50: > 100 µM (inactive)
OVCAR-8
  GI50: > 100 µM (inactive)
PC-3
  GI50: > 100 µM (inactive)
RPMI-8226
  GI50: > 100 µM (inactive)
RXF 393
  GI50: > 100 µM (inactive)
SF-268
  GI50: > 100 µM (inactive)
SF-295
  GI50: > 100 µM (inactive)
SK-MEL-28
  GI50: > 100 µM (inactive)
SK-MEL-2
  GI50: > 100 µM (inactive)
SK-MEL-5
  GI50: > 100 µM (inactive)
SK-OV-3
  GI50: > 100 µM (inactive)
SN12C
  GI50: > 100 µM (inactive)
SNB-19
  GI50: > 100 µM (inactive)
SNB-75
  GI50: > 100 µM (inactive)
SR
  GI50: > 100 µM (inactive)
SW-620
  GI50: > 100 µM (inactive)
T47D
  GI50: > 100 µM (inactive)
TK-10
  GI50: > 100 µM (inactive)
U-251
  GI50: > 100 µM (inactive)
UACC-257
  GI50: > 100 µM (inactive)
UACC-62
  GI50: > 100 µM (inactive)
UO-31
  GI50: > 100 µM (inactive)
